The source of these data is article PMC8348686, “The Pharmacological Profile of Second Generation Pyrovalerone Cathinones and Related Cathinone Derivative” (International Journal of Molecular Sciences, 2021).

The term Ki denotes the dissociation constant of the complex between target and ligand, obtained from inhibition or displacement. Broadly, the EC50 is the concentration that produces a half-maximal response.

Experiment [1] has as its target T1, hNET (Homo sapiens, UniProt P23975). The experiment can be described thus: Transporter binding, N-methyl-[3H]-nisoxetine. The text has this: Table 3 Monoamine transporter and receptor binding affinities of pyrovalerone and NEH. | column: hNET / Receptor Binding / Ki ± SD [μM] / N-Methyl-[^3H]-nisoxetine
Experiment [2] concerns the target T2, adrenergic α2A receptor (Homo sapiens, UniProt P08913).
T2 sequence (P08913 1-465): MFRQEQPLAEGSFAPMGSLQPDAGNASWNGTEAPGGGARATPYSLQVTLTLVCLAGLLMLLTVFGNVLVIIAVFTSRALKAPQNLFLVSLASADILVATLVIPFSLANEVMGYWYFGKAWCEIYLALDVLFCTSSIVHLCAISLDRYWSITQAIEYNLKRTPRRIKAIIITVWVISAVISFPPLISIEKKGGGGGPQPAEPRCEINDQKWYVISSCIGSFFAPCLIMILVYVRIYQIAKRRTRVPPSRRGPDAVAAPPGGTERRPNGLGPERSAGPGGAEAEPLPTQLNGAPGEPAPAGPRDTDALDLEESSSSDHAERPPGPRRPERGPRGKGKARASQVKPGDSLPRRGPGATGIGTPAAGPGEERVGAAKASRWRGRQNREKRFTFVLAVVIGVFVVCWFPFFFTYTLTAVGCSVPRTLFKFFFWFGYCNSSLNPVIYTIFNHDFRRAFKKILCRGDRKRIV
Nature of the experiment: Receptor binding, [3H]-rauwolscine. From the text: Table 3 Monoamine transporter and receptor binding affinities of pyrovalerone and NEH. | column: α2A / Receptor Binding / Ki ± SD [μM] / [^3H]-Rauwolscine

Experiment [3] addresses dopaminergic D2 receptor (Homo sapiens, UniProt P14416). Nature of the experiment: Receptor binding, [3H]-spiperone. The text has this: Table 3 Monoamine transporter and receptor binding affinities of pyrovalerone and NEH. | column: D2 / Receptor Binding / Ki ± SD [μM] / [^3H]-Spiperone
Experiment [4] deals with T3, hSERT (Homo sapiens, UniProt P31645). Nature of the experiment: Transporter binding, [3H]-citalopram.
Experiment [5] addresses hDAT (Homo sapiens, UniProt Q01959). The experiment can be described thus: Transporter binding, [3H]-WIN-35,428.
Experiment [6] addresses T4, adrenergic α1A receptor (Homo sapiens, UniProt P35348).
T4 sequence (P35348 1-466): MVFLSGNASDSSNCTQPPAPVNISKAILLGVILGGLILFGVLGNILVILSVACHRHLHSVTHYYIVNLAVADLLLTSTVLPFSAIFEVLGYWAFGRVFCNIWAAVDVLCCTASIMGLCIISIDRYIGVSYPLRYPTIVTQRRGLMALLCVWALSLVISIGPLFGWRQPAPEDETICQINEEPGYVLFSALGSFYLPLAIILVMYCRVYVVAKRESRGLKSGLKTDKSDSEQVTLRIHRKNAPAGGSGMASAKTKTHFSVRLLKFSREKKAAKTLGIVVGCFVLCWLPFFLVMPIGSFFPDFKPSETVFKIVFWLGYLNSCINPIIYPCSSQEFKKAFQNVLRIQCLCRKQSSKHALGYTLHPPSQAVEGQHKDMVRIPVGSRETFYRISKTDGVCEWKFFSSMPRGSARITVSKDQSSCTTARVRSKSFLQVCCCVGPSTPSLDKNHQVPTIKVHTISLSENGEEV
Nature of the experiment: Receptor binding, [3H]-prazosin.

The target of experiment [7] is T5, h5-HT2A receptor (Homo sapiens, UniProt P28223). Also noted: expressed in transfected cells; host or cells: HEK293 cell preparations; method as in Rickli et al. (2015). The conditions noted are these: read-out: h5-HT2A Activation Potency EC50 ± SD; ref Rickli et al. (2015); cited from earlier work.
Experiment [8] deals with T3, hSERT. The conditions noted are these: read-out: hSERT Receptor Binding Ki ± SD, [3H]-Citalopram, cited from earlier work.
The target of experiment [9] is T5, h5-HT2A receptor. More on the design: expressed in transfected cells; host or cells: HEK293 cell preparations. The conditions noted are these: read-out: h5-HT2A Receptor Binding Ki ± SD; [3H]-Ketanserin; ref Rickli et al. (2015); cited from earlier work.
In experiment [10] the target is T1, hNET. The following applies: read-out: hNET Receptor Binding Ki ± SD, N-Methyl-[3H]-nisoxetine, cited from earlier work.
Experiment [11] concerns the target T6, h5-HT2B receptor (Homo sapiens, UniProt P41595).
T6 construct: expressed in transfected cells; host or cells: HEK293
More on the design: method as in Rickli et al. (2015). The following applies: read-out: h5-HT2B Activation Potency EC50 ± SD; ref Rickli et al. (2015); cited from earlier work.

Experiment [12] relates to Human TAAR1. More on the design: method as in Simmler et al. (2016). The conditions noted are these: ref Simmler et al. (2016); read-out: Human TAAR1 Activation Potency EC50 ± SD; cited from earlier work.
The mark [13] stands for this setting: ref Luethi, Kolaczynska et al. (2019).

Like-named read-outs stand apart in the source and are kept apart here.

T1 sequence (P23975 whole entry): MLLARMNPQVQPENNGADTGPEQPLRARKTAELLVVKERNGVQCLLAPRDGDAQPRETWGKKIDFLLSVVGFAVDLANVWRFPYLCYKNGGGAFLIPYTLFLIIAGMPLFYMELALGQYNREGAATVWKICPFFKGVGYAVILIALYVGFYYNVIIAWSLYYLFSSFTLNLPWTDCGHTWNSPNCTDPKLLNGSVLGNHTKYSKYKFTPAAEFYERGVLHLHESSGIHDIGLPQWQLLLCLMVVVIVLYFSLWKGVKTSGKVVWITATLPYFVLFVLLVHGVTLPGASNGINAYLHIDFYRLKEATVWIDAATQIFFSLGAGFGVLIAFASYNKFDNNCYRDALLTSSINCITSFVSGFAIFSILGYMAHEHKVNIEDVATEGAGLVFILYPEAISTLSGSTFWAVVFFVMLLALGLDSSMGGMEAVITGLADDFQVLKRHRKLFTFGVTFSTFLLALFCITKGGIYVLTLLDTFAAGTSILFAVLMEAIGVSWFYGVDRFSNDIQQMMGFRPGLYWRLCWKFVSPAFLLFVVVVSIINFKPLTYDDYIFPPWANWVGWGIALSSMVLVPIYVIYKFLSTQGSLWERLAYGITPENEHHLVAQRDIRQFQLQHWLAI
T3 sequence (P31645 whole entry): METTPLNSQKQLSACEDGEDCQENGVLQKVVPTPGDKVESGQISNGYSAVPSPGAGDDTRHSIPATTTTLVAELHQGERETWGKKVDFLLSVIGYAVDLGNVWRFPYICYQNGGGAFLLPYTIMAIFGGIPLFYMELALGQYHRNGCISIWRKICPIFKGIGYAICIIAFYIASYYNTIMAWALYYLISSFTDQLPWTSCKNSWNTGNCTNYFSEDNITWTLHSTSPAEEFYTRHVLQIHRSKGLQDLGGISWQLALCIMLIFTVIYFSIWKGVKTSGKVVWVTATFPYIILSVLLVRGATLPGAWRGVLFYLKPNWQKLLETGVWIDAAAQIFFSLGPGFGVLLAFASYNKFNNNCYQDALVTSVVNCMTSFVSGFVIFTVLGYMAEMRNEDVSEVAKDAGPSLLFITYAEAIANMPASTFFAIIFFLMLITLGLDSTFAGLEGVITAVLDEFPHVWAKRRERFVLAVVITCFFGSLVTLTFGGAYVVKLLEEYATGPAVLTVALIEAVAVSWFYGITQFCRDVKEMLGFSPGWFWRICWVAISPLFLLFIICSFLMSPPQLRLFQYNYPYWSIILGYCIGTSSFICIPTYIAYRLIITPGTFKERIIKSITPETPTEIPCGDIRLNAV
T5 sequence (P28223 whole entry): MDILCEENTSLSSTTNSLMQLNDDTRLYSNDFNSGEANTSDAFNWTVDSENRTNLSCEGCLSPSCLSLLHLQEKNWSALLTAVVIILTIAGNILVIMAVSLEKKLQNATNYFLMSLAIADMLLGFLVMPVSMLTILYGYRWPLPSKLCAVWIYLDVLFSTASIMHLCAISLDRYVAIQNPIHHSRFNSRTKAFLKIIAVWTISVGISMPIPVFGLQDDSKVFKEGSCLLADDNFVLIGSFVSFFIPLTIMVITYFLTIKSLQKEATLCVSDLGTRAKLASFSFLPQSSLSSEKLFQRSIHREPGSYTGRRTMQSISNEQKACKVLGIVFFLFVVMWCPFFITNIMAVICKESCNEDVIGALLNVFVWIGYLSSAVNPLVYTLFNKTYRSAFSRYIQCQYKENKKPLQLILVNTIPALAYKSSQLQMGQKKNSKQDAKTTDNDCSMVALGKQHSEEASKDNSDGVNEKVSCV
Sequence of dopaminergic D2 receptor (P14416 whole entry): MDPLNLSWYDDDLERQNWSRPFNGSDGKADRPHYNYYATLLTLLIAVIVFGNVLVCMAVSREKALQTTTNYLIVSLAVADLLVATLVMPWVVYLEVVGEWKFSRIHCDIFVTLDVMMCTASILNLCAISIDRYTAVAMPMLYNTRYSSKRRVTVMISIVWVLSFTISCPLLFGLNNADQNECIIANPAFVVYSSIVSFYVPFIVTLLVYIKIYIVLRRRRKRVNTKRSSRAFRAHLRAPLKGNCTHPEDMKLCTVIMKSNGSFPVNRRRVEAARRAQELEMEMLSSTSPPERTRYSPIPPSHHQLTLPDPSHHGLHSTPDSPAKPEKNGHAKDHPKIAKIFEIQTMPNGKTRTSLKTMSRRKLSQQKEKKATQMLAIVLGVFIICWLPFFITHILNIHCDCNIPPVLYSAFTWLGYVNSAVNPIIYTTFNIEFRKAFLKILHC
T6 sequence (P41595 whole entry): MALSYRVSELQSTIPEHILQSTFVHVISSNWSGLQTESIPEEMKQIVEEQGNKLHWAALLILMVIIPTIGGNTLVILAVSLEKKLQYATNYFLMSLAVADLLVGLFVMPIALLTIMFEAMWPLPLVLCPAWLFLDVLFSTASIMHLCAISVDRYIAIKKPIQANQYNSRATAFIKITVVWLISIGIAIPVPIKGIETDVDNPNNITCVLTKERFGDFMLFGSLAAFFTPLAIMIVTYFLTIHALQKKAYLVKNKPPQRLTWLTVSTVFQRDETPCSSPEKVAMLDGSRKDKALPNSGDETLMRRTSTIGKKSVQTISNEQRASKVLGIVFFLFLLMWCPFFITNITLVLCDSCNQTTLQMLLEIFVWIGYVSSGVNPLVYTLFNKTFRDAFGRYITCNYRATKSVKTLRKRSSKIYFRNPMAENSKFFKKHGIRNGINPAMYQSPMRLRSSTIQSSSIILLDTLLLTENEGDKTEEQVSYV
Sequence of hDAT (Q01959 whole entry): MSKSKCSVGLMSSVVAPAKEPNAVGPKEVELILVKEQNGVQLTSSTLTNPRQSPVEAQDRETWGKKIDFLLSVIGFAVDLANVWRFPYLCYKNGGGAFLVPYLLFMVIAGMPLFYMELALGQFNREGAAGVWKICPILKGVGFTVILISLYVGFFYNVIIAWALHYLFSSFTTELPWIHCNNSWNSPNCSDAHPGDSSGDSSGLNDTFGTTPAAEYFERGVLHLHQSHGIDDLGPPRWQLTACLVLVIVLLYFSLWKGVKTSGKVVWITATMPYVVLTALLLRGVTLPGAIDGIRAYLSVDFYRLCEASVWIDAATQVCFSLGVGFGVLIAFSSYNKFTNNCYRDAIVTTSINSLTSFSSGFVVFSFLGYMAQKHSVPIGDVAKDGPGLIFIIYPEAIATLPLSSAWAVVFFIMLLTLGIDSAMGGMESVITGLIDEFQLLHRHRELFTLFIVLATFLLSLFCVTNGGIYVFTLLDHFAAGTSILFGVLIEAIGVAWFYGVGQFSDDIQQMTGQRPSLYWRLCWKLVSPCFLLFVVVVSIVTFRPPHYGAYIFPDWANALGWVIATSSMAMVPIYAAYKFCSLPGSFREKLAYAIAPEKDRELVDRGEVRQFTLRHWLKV

Regarding `Cc1ccc(C(=O)C(C)N2CCCC2)cc1` (stereo not drawn) [4-MePPP, 4-methyl-α-pyrrolidinopropiophenone], the Ki in experiment [1] is 2.5 ± 0.7 µM; in [2], > 4.7 µM; in experiment [3], > 13 µM; in experiment [4], > 7.4 µM; in experiment [5], 0.3 ± 0.02 µM; in [6], 2.2 ± 0.1 µM.

For `CNC(C)Cc1ccc2c(c1)OCO2` (centres unmarked) [MDMA, 3,4-methylenedioxymethamphetamine, reference compound], the EC50 in experiment [7] was 6.1 ± 0.3 µM; in experiment [11] it was > 20 µM; in [12] it was 35 ± 21 µM. Moreover, the Ki in [8] (setting [13]) was > 7.5 µM; in experiment [9], 6.3 ± 2.4 µM; in [10] (setting [13]), > 8.7 µM.

For `CCC(C(=O)c1ccc2c(c1)OCO2)N1CCCC1` (stereo not drawn) [MDPBP, 3,4-methylenedioxy-α-pyrrolidinobutiophenone], the Ki is 4.1 ± 1.2 µM in experiment [8] (ref Rickli et al. (2015)) and 1.1 ± 0.1 µM in experiment [10] (ref Rickli et al. (2015)).

On to `CC(C(=O)c1ccc2c(c1)OCO2)N1CCCC1` (stereo not drawn) [MDPPP, 3,4-methylenedioxy-α-pyrrolidinopropiophenone], for which the Ki is 12 ± 1 µM in experiment [8] (ref Rickli et al. (2015)) and 3.5 ± 1 µM in experiment [10] (ref Rickli et al. (2015)).

As to `CCCC(C(=O)c1ccc2c(c1)OCO2)N1CCCC1` (centres unmarked) [MDPV, 3,4-methylenedioxypyrovalerone], the results for the Ki in experiment [8] (ref Simmler et al. (2013)) and in [10] (ref Simmler et al. (2013)) were 2.9 ± 0.1 µM and 0.08 ± 0.02 µM, respectively. In addition, the EC50 in [12] is > 30 µM.

In the case of `CCCC(C(=O)c1ccc(C)cc1)N1CCCC1` (centres unmarked) [Pyrovalerone, pyrovalerone], the Ki in experiment [8] (ref Simmler et al. (2013)) was 5 ± 0.3 µM; in experiment [10] (ref Simmler et al. (2013)) it was 0.06 ± 0.01 µM.

For the compound `CCCC(C(=O)c1ccccc1)N1CCCC1` (stereo not drawn) [α-PVP, α-pyrrolidinopentiophenone], the Ki in experiment [8] (ref Rickli et al. (2015)) is > 30 µM; in [10] (ref Rickli et al. (2015)), 0.06 ± 0.02 µM.
